Measurements taken from the NIST ThermoML archive (doi:10.1016/j.jct.2017.03.040).

Test: mn = molality of the nth substance listed, in mol/kg
Conditions: 100 kPa, Liquid; for speed of sound: Frequency=3 MHz, Single path-length method; for mass density: Vibrating tube method

N[C@@H](CS)C(=O)O [(R)-2-amino-3-mercaptopropanoic acid] + O
Conditions	mass density, 288.15 K [kg/m3]	mass density, 298.15 K [kg/m3]	mass density, 308.15 K [kg/m3]	mass density, 318.15 K [kg/m3]	speed of sound, 288.15 K [m/s]	speed of sound, 298.15 K [m/s]	speed of sound, 308.15 K [m/s]	speed of sound, 318.15 K [m/s]
m1 = 0.09747	1003.7	1001.64	998.63	994.82	1474	1503.6	1525.8	1541.9
m1 = 0.1985	1008.47	1006.41	1003.4	999.59	1481.8	1510.9	1532.2	1547.8
m1 = 0.2986	1013.2	1011.13	1008.12	1004.32	1489.5	1518	1538.6	1553.6
m1 = 0.3968	1017.83	1015.77	1012.76	1008.96	1497.1	1525.1	1544.9	1559.3
m1 = 0.4932	1022.38	1020.32	1017.31	1013.51	1504.5	1532	1551	1564.8
m1 = 0.6	1027.42	1025.36	1022.35	1018.55	1512.7	1539.6	1557.8	1571
m1 = 0.6922	1031.77	1029.71	1026.7	1022.9	1519.8	1546.2	1563.6	1576.4

CCCCCn1cc[n+](C)c1.[Br-] [1-pentyl-3-methylimidazolium bromide] + O
Conditions	mass density, 288.15 K [kg/m3]	mass density, 298.15 K [kg/m3]	mass density, 308.15 K [kg/m3]	mass density, 318.15 K [kg/m3]	speed of sound, 288.15 K [m/s]	speed of sound, 298.15 K [m/s]	speed of sound, 308.15 K [m/s]	speed of sound, 318.15 K [m/s]
m1 = 0.005	999.3	997.23	994.23	990.42	1467.7	1497.3	1520.3	1536.7
m1 = 0.01	999.5	997.42	994.42	990.62	1468.5	1498	1520.7	1537.4
m1 = 0.03	1000.31	998.19	995.2	991.41	1470.8	1500.3	1522.5	1539.1
m1 = 0.05	1001.11	998.96	995.98	992.21	1473.7	1502.8	1524.6	1541

CC(=O)N[C@@H](CS)C(=O)O [N-acetyl-L-cysteine] + O
Conditions	mass density, 288.15 K [kg/m3]	mass density, 298.15 K [kg/m3]	mass density, 308.15 K [kg/m3]	mass density, 318.15 K [kg/m3]	speed of sound, 288.15 K [m/s]	speed of sound, 298.15 K [m/s]	speed of sound, 308.15 K [m/s]	speed of sound, 318.15 K [m/s]
m1 = 0.09902	1003.53	1001.37	998.26	994.33	1472.9	1501.8	1523.8	1539.8
m1 = 0.1981	1007.96	1005.7	1002.49	998.44	1479.4	1507	1527.9	1543.2
m1 = 0.2976	1012.41	1010.05	1006.74	1002.57	1485.8	1512.3	1532.1	1546.7
m1 = 0.397	1016.85	1014.39	1010.98	1006.7	1492.3	1517.5	1536.3	1550.2
m1 = 0.4992	1021.42	1018.86	1015.35	1010.94	1498.9	1522.9	1540.6	1553.8
m1 = 0.5991	1025.88	1023.22	1019.61	1015.09	1505.4	1528.2	1544.8	1557.3
m1 = 0.6903	1029.96	1027.21	1023.51	1018.87	1511.3	1533	1548.6	1560.5
